According to patent publication US11149047B2, “Aryl imidazoles for treatment of cancer” (Aptose Biosciences Inc., priority 2017, dated 2021):
Read-outs that look alike come from different tables or passages of the source.

Experiments:
Type in all cases: cell-based
MV4-11 = experiment: Cytotoxicity study (MTS); settings: Homo sapiens
Experimental: EOL-1, GRANTA-519, Jeko-1, Jurkat, Molm-13, NOMO-1, SKM-1, and SU-DHL-6 were obtained from Leibniz-Institut DSMZ. HL-60, KG-1, Mino, MV4-11, Raji, and THP-1 were obtained from ATCC. HEL92.1.7 were obtained from the European Collection of Authenticated Cell Cultures and Ramos cells were a gift from Dr. M. Andreeff (MD Anderson Cancer Center, Houston, Tex.). All cells were cultured in complete media as per the manufacturer's instructions. Early passage cells were collected and frozen within 1 month of receipt from the manufacturer. All experiments were performed on early passage cells within 6 weeks of thawing. MycoScope Mycoplasma Detection Kit (Genlantis catalog #MY01050) was used to screen for potential contamination every 6 months. Peripheral blood mononuclear cells (PBMC) were isolated from fresh healthy donor blood using Ficoll-Paque PLUS (GE Healthcare, catalog #17-1440-02). For synthesis of COMPOUND I free base, 10-phenanthroline-5,6-dione (1.2 equivalents), acetic acid (22 volumes), 2-methyl-5-fluoroindole-3-carboxaldehyde (1.0 equivalents), and ammonium acetate (15 equivalents) were reacted under medium agitation while heated at 95±5° C. for 3 to 7 hours. The reaction was cooled to between 20° C. and 25° C., filtered, rinsed with acetic acid and ethanol, and dried with N2 purge, followed by a wash with 2:1 ethanol:water at 65° C. for 4 hours, cooling to 20° C. to 25° C., filtration, rinsing with 2:1 ethanol:water and EtOAc, and then dried with N2 purge. The purity by HPLC was 99.5%, and the structural identity was confirmed by FT-IR, ^1HNMR, ^13C NMR, and LC/MS. For Fe(COMPOUND I)3 synthesis, five molar equivalents of ferrous ion FeSO4 in water was added to COMPOUND I dissolved in ethanol. The deep red precipitate produced, Fe(COMPOUND I)3, was collected and dissolved in DMSO and characterized by HPLC and mass spectrometry as >95% pure. CX-5461 (7) was purchased from MedChem Express (catalog #HY-13323).
[…] Cell viability was measured using CellTiter 96 AQueous one solution (MTS) cell proliferation assay (Promega, catalog #G3581), and IC50 values were calculated using GraphPad Prism 7 software.

[1] = test system: H3K27ac at the MYC promoter in MV4-11 cells; experiment: ChIP-qPCR for H3K27ac; settings: 500 nmol/L
Experimental: MV4-11 cells were treated with vehicle DMSO or 500 nmol/L COMPOUND I for 2, 6, or 24 hours and then crosslinked with 1% formaldehyde. Chromatin was extracted by sonication and then incubated with H3K27ac (Active Motif #39133) antibody overnight. The antibody:DNA complexes were isolated with Protein G beads (Invitrogen Dynabeads catalog #10004D) and analyzed by qPCR with primers specific to the MYC promoter (Table 7). H3K27ac enrichment was calculated as fold over input DNA control.
Regulation of MYC expression is a complex process that involves MYC transcription, mRNA stability, and protein turnover. ChIP-qPCR analysis for H3K27ac, a well-established marker of active chromatin, was performed to assess transcriptional competency of the MYC gene promoter after treatment with COMPOUND I (FIG. 19D). […] To determine whether COMPOUND I affected MYC mRNA stability, an RNA decay assay was performed on EOL-1 cells.

[2] = test system: TP53, phos-CHEK1, γH2AX, MAPK14, MAPK8 in MV4-11 cells; experiment: Western blot of DNA damage and cell stress pathways; settings: 500 nmol/L
Experimental: Cells were treated as described above. Whole-cell lysates were prepared, separated by SDS-PAGE, and transferred to nitrocellulose membranes. Densitometry was performed using ImageJ or Image Studio Lite Version5.2 software and normalized to the density of GAPDH.
The increase in total protein was concomitant with an increase in phospho-Ser15 and acetyl-K382 (FIG. 12B). TP53 is phosphorylated at Ser15 and Ser20 in response to DNA damage, which reduces MDM2 binding and proteasomal degradation of p53. Furthermore, p53 is acetylated in response to cellular stress, and this modification can further stabilize TP53 protein levels and modulate binding activity. Activation of TP53 can trigger apoptosis through upregulation of proapoptotic factors such as BBC3 (PUMA), PMAIP1 (NOXA), and BAX. […] A concentration-dependent increase in ? H2AX was detected in all AML lines tested, thereby adding further credence to the concept that COMPOUND I triggers the DDR pathway (FIG. 12D).

Work on Cc1[nH]c2ccc(F)cc2c1-c1nc2c3cccnc3c3ncccc3c2[nH]1 [COMPOUND I, 2-(5-fluoro-2-methyl-1H-indol-3-yl)-1H-imidazo[4,5-f][1,10]phenanthroline] yielded an IC50 (MV4-11; MV4-11, 120 h, AML, 5 days, read-out: IC50 (μM) Mean) of 0.24 µM, an IC50 (MV4-11; MV4-11, exposure 48 hours, read-out: IC50) of 0.47 µM and an IC50 (MV4-11; MV4-11, exposure 72 hours, read-out: IC50) of 0.4 µM. For the same compound, the IC50 (MV4-11; MV4-11, exposure 120 hours, read-out: IC50) was 0.24 µM, the “earliest time a decrease in H3K27ac at the MYC promoter was observed” value [1] was 2 h and the “time at which an increase in phos-CHEK1 was detected” value [2] was 1 h. For the same compound, the “time of phos-CHEK1 peak” value [2] was “approximately 4 hours”, the “MAPK14 and MAPK8 phosphorylation” value ([2]; 4- to 6-hour treatment) was “increase in both MAPK14 phos-T180 and MAPK8 phos-Thr183/pTyr185” and the “DDR marker γH2AX” value ([2]; by 6 hours) was “robust increase”. For the same compound, the TP53 levels ([2]; 1, 3, and 6 hours) was “significant increase in TP53 levels”.
